Results on 26 compounds are retold here after patent publication US5968926A, “Antipsychotic method” (Novo Nordisk A/S, priority 1995, dated 1999).

Counter-ions that a name gives are not always drawn.

The first series concerns conditioned avoidance responding. Kind of series: Conditioned avoidance behavior in rats. Format: in vivo, rat. The conditions noted are these: 3.0 mg/kg s.c. 30 min before session, 50 trials. The source says: In a conditioned avoidance test, animals learn to respond during a conditioned stimulus in order to avoid mild shock presentation. A response during the conditioned stimulus is termed an avoidance respone, a response during shock is termed an escape response; a response failure is when the animal fails to respond during either the conditioned stimlus or the shock presentation and is indicative of motor impairment. […] Antipsychotic drugs decrease the percentage of avoidance responses without interfering with the ability of the animal to respond since the animals do emit escape responses. The percentage of response failures is considered a measure of motor impairment.
Rats were required to press a response lever in an experimental chamber in order to avoid or escape foot-shock. Each experimental session consisted of 50 trials. During each trial, the chamber was illuminated and a tone presented for a maximum of 10 sec. A response during the tone immediately terminated the tone and the houselight, ending the trial. In the absence of a response during the tone alone, tone+foot-shock (2.0 mA) was presented for a maximum of 10 sec. A response during shock presentation immediately terminated the shock, the tone and the houselight, ending the trial.
For drug screening, a dose of 3.0 mg/kg was administered s.c. 30 min before the start of the experimental session.
In the case of `CCOc1nsnc1[C@H]1CN2CCC[C@H]1C2` (relative stereo) [Compound 19, Exo-6-(3-ethoxy-1,2,5-thiadiazol-4-yl)-1-azabicyclo[3.2.1]octane oxalate], the “Conditioned Avoidance % Avoidance Responses” value came out at 73%.

Take `CCCCSc1nsnc1[C@H]1CN2CCC[C@H]1C2` (relative stereo) [Compound 30, Exo-6-(3-butylthio-1,2,5-thiadiazol-4-yl)-1-azabicyclo[3.2.1]octane oxalate]: the “Conditioned Avoidance % Avoidance Responses” value stood at 32%.

In the case of `CCSc1nsnc1[C@H]1CN2CCC[C@H]1C2` (relative stereo) [Compound 32, Exo-6-(3-ethylthio-1,2,5-thiadiazol-4-yl)-1-azabicyclo[3.2.1]octane oxalate], the “Conditioned Avoidance % Avoidance Responses” value was found to be 46%.

As to `CCCSc1nsnc1[C@H]1CN2CCC[C@H]1C2` (relative stereo) [Compound 58, Exo-6-(3-propylthio-1,2,5-thiadiazol-4-yl)-1-azabicyclo[3.2.1]octane oxalate], the “Conditioned Avoidance % Avoidance Responses” value was determined as 41%.

Regarding `CSc1nsnc1[C@H]1CN2CCC[C@H]1C2` (relative stereo) [Compound 74, Exo-6-(3-methylthio-1,2,5-thiadiazol-4-yl)-1-azabicyclo[3.2.1]octane oxalate], the “Conditioned Avoidance % Avoidance Responses” value amounted to 22%.

In the case of `N#Cc1ccc(CSc2nsnc2[C@H]2CN3CCC[C@H]2C3)cc1` (relative stereo) [Compound 82, Exo-6-(3-(4-cyanobenzylthio)-1,2,5-thiadiazol-4-yl)-1-azabicyclo[3.2.1]octane oxalate], the “Conditioned Avoidance % Avoidance Responses” value turned out to be 24%.

As to `CCCOc1nsnc1[C@H]1CN2CCC[C@H]1C2` (relative stereo) [Compound 119, Exo-6-(3-propoxy-1,2,5-thiadiazol-4-yl)-1-azabicyclo[3.2.1]octane oxalate], the “Conditioned Avoidance % Avoidance Responses” value was 29%.

In the case of `CCCCOc1nsnc1[C@H]1CN2CCC[C@H]1C2` (relative stereo) [Compound 120, Exo-6-(3-butoxy-1,2,5-thiadiazol-4-yl)-1-azabicyclo[3.2.1]octane oxalate], the “Conditioned Avoidance % Avoidance Responses” value is on record as 27%.

For the compound `CCCCSc1nsnc1C1CN2CCC1CC2.O=C(O)C(O)C(O)C(=O)O` (single isomer, unassigned) [Compound 56, (+) 3-(3-Butylthio-1,2,5-thiadiazol-4-yl)-1-azabicyclo (2.2.2]octane (-) D-tartrate], the “Conditioned Avoidance % Avoidance Responses” value worked out at 6%.

As to `CCOc1nsnc1C1CN2CCC1CC2.O=C(O)/C=C/C(=O)O` (centres unmarked) [Compound 9, 3-(3-Ethoxy-1,2,5-thiadiazol-4-yl)-1-azabicyclo[2.2.2]octane fumarate], the “Conditioned Avoidance % Avoidance Responses” value was 65%.

`CCCCCCOc1nsnc1C1CN2CCC1CC2.O=C(O)/C=C/C(=O)O` (centres unmarked) [Compound 11, 3-(3-Hexyloxy-1,2,5-thiadiazol-4-yl)-1-azabicyclo[2.2.2]octane fumarate]: the “Conditioned Avoidance % Avoidance Responses” value worked out at 11%.

In the case of `CCCCSc1nsnc1C1CN2CCC1CC2.O=C(O)/C=C/C(=O)O` (centres unmarked) [Compound 13, 3-(3-Butylthio-1,2,5-thiadiazol-4-yl)-1-azabicyclo[2.2.2]octane fumarate], the “Conditioned Avoidance % Avoidance Responses” value was 18%.

With `CCCCOc1nsnc1C1CN2CCC1CC2.O=C(O)C(=O)O` (centres unmarked) [Compound 46, 3-(3-Butoxy-1,2,5-thiadiazol-4-yl)-1-azabicyclo[2.2.2]octane oxalate], the “Conditioned Avoidance % Avoidance Responses” value is reported as 30%.

For the compound `CCSc1nsnc1C1CN2CCC1CC2.O=C(O)C(=O)O` (centres unmarked) [Compound 52, 3-(3-Ethylthio-1,2,5-thiadiazol-4-yl)-1-azabicyclo[2.2.2]octane oxalate], the “Conditioned Avoidance % Avoidance Responses” value was 63%.

On to `CCCSc1nsnc1C1CN2CCC1CC2.O=C(O)C(=O)O` (centres unmarked) [Compound 53, 3-(3-Propylthio-1,2,5-thiadiazol-4-yl)-1-azabicyclo[2.2.2]octane oxalate], for which the “Conditioned Avoidance % Avoidance Responses” value is listed as 41%.

With `O=C(O)/C=C/C(=O)O.c1ccc(OCCSc2nsnc2C2CN3CCC2CC3)cc1` (centres unmarked) [Compound 102, 3-(3-(2-Phenoxyethylthio)-1,2,5-thiadiazol-4-yl)-1-azabicyclo[2.2.2) octane fumarate], the “Conditioned Avoidance % Avoidance Responses” value came to 3%.

In the case of `N#CCSc1nsnc1C1CN2CCC1CC2.O=C(O)C(=O)O` (centres unmarked) [Compound 103, 3-(3-Cyanomethylthio-1,2,5-thiadiazol-4-yl)-1-azabicyclo[2.2.2]octane oxalate], the “Conditioned Avoidance % Avoidance Responses” value was determined as 51%.

Consider `O=C(O)/C=C/C(=O)O.c1csc(CCCSc2nsnc2C2CN3CCC2CC3)c1` (centres unmarked) [Compound 104, 3-(3-(3-(2-Thienyl)propylthio)-1,2,5-thiadiazol-4-yl)-1-azabicyclo[2.2.2]octane fumarate], for which the “Conditioned Avoidance % Avoidance Responses” value is given as 24%.

For the compound `Cn1nnnc1SCCCCSc1nsnc1C1CN2CCC1CC2` (centres unmarked) [Compound 106, oxalate], the “Conditioned Avoidance % Avoidance Responses” value came to 55%.

For `Cc1nnc(SCCCCSc2nsnc2C2CN3CCC2CC3)s1` (centres unmarked) [Compound 107, oxalate], the “Conditioned Avoidance % Avoidance Responses” value worked out at 52%.

Take `CSc1nsnc1C1CN2CCC1CC2.O=C(O)C(=O)O` (centres unmarked) [Compound 131, 3-(3-Methylthio-1,2,5-thiadiazol-4-yl)-1-azabicyclo[2.2.2]octane oxalate]: the “Conditioned Avoidance % Avoidance Responses” value came to 53%.

The series is the same for the next values; noted with them: 3.0 mg/kg s.c. 30 min before session, 50 trials, 3 mg/kg.
Take `CCCCSc1nsnc1C1CN2CCCC1C2` (single isomer, unassigned) [Compound 111, (-)-Exo-6-(3-butylthio-1,2,5-thiadiazol-4-yl)-1-azabicyclo[3.2.1]octane (+) L-tartrate]: the “Conditioned Avoidance % Avoidance Responses” value is recorded as 8%.

Take `CCCCSc1nsnc1C1CN2CCCC1C2` (single isomer, unassigned) [Compound 112, (+)-Exo-6-(3-butylthio-1,2,5-thiadiazol-4-yl)-1-azabicyclo[3.2.1]octane (-) D-tartrate]: the “Conditioned Avoidance % Avoidance Responses” value was 2%.

Regarding `CCCSc1nsnc1C1CN2CCCC1C2` (single isomer, unassigned; (+)) [Compound 113, (+)-Exo-6-(3-propylthio-1,2,5-thiadiazol-4-yl)-1-azabicyclo[3.2.1]octane (+) L-tartrate], the “Conditioned Avoidance % Avoidance Responses” value was 19%.

As for `CCCSc1nsnc1C1CN2CCCC1C2` (single isomer, unassigned; (-)) [Compound 114, (-)-Exo-6-(3-propylthio-1,2,5-thiadiazol-4-yl)-1-azabicyclo[3.2.1]octane (-) D-tartrate], the “Conditioned Avoidance % Avoidance Responses” value is 39%.

Tested on in the next series: not given
Assay: not given
Conditions: blood samples of treated patients, 17 patients, trial terminated; cited from earlier work.
For the compound `Cc1cc2c(s1)Nc1ccc(F)cc1N=C2N1CCN(C)CC1` [flumezapine, 7-fluoro-2-methyl-10-(4-methyl-1-piperazinyl)-4H-thieno[2,3-b][1,5]-benzodiazepine], the “enzyme levels: creatinine phosphokinase (CPK), SGOT, SGPT” value is “in substantial excess of normal values”.
